Results taken from patent US11911386B2, “Methods of treating B-cell proliferative disorder” (BeiGene Switzerland GmbH, priority 2022, dated 2024).
Where two headings read alike, the source gives them in different places.

How the values were obtained:
[1] = cited from earlier work

## C=CC(=O)N1CCC([C@@H]2CCNc3c(C(N)=O)c(-c4ccc(Oc5ccccc5)cc4)nn32)CC1 [zanubrutinib, (S)-7-(1-acryloylpiperidin-4-yl)-2-(4-phenoxyphenyl)-4,5,6,7-tetrahydropyrazolo[1,5-a]pyrimidine-3-carboxamide]
160 mg bid group
  Grade ≥3 AE: 28.6%
  Neutropenia: 19.0%
  Patients with ≥1 AE: 95.2%
  SAE: 9.5%
  Treatment discontinuation due to AEs: 4.8%
320 mg qd group
  Grade ≥3 AE: 32.0%
  Neutropenia: 8.0%
  Patients with ≥1 AE: 96%
  SAE: 16.0%
  Treatment discontinuation due to AEs: 12.0%
67 patients
  Arthralgia: 13.4%
  Contusion: 22.4%
  Death (COVID-19 pneumonia): 1.5%
  Diarrhoea: 13.4%
  Epistaxis: 7.5%
  Fatigue: 20.9%
  Grade ≥3 AEs: 29.9%
  Hypertension: 11.9%
  Myalgia: 14.9%
  Neutropenia or neutrophil count decreased, grade ≥3: 11.9%
  Patients with ≥1 AE: 95.5%
  Petechiae: 7.5%
  Serious AEs: 11.9%
  Syncope, grade ≥3: 3.0%
67 patients, all grade 2
  Atrial fibrillation: 4.5%
Cohort 1
  Patients who discontinued zanubrutinib: 15.8%
  Patients who discontinued zanubrutinib due to AEs: 7.0%
Cohort 2
  Patients who discontinued zanubrutinib: 20.0%
Grade 1
  Arthralgia: 4 (6.0) n (%)
  Back pain: 2 (3.0) n (%)
  Bronchitis: 0 (0.0) n (%)
  Cellulitis: 0 (0.0) n (%)
  Constipation: 3 (4.5) n (%)
  Contusion: 12 (17.9) n (%)
  Cough: 4 (6.0) n (%)
  Diarrhoea: 6 (9.0) n (%)
  Dizziness: 3 (4.5) n (%)
  Epistaxis: 4 (6.0) n (%)
  Fatigue: 8 (11.9) n (%)
  Headache: 4 (6.0) n (%)
  Hypertension: 0 (0.0) n (%)
  Insomnia: 3 (4.5) n (%)
  Muscle spasms: 4 (6.0) n (%)
  Myalgia: 8 (11.9) n (%)
  Nausea: 6 (9.0) n (%)
  Neutropenia: 0 (0.0) n (%)
  Neutrophil count decrease: 0 (0.0) n (%)
  Pain in extremity: 3 (4.5) n (%)
  Petechiae: 5 (7.5) n (%)
  Pruritus: 3 (4.5) n (%)
  Rash: 5 (7.5) n (%)
  Seborrheic keratosis: 3 (4.5) n (%)
  Skin laceration: 2 (3.0) n (%)
  Upper respiratory tract infection: 3 (4.5) n (%)
  Urinary tract infection: 1 (1.5) n (%)
Grade 2
  Arthralgia: 5 (7.5) n (%)
  Back pain: 2 (3.0) n (%)
  Bronchitis: 3 (4.5) n (%)
  Cellulitis: 3 (4.5) n (%)
  Constipation: 1 (1.5) n (%)
  Contusion: 3 (4.5) n (%)
  Cough: 1 (1.5) n (%)
  Diarrhoea: 2 (3.0) n (%)
  Dizziness: 4 (6.0) n (%)
  Epistaxis: 1 (1.5) n (%)
  Fatigue: 6 (9.0) n (%)
  Headache: 0 (0.0) n (%)
  Hypertension: 7 (10.4) n (%)
  Insomnia: 2 (3.0) n (%)
  Muscle spasms: 1 (1.5) n (%)
  Myalgia: 2 (3.0) n (%)
  Nausea: 1 (1.5) n (%)
  Neutropenia: 0 (0.0) n (%)
  Neutrophil count decrease: 2 (3.0) n (%)
  Pain in extremity: 3 (4.5) n (%)
  Petechiae: 0 (0.0) n (%)
  Pruritus: 1 (1.5) n (%)
  Rash: 0 (0.0) n (%)
  Seborrheic keratosis: 1 (1.5) n (%)
  Skin laceration: 2 (3.0) n (%)
  Upper respiratory tract infection: 1 (1.5) n (%)
  Urinary tract infection: 4 (6.0) n (%)
Grade 3
  Arthralgia: 0 (0.0) n (%)
  Back pain: 0 (0.0) n (%)
  Bronchitis: 1 (1.5) n (%)
  Cellulitis: 1 (1.5) n (%)
  Constipation: 0 (0.0) n (%)
  Contusion: 0 (0.0) n (%)
  Cough: 0 (0.0) n (%)
  Diarrhoea: 1 (1.5) n (%)
  Dizziness: 0 (0.0) n (%)
  Epistaxis: 0 (0.0) n (%)
  Fatigue: 0 (0.0) n (%)
  Headache: 0 (0.0) n (%)
  Hypertension: 1 (1.5) n (%)
  Insomnia: 0 (0.0) n (%)
  Muscle spasms: 0 (0.0) n (%)
  Myalgia: 0 (0.0) n (%)
  Nausea: 0 (0.0) n (%)
  Neutropenia: 5 (7.5) n (%)
  Neutrophil count decrease: 2 (3.0) n (%)
  Pain in extremity: 0 (0.0) n (%)
  Petechiae: 0 (0.0) n (%)
  Pruritus: 0 (0.0) n (%)
  Rash: 0 (0.0) n (%)
  Seborrheic keratosis: 0 (0.0) n (%)
  Skin laceration: 0 (0.0) n (%)
  Upper respiratory tract infection: 0 (0.0) n (%)
  Urinary tract infection: 0 (0.0) n (%)
Grade 4
  Arthralgia: 0 (0.0) n (%)
  Back pain: 0 (0.0) n (%)
  Bronchitis: 0 (0.0) n (%)
  Cellulitis: 0 (0.0) n (%)
  Constipation: 0 (0.0) n (%)
  Contusion: 0 (0.0) n (%)
  Cough: 0 (0.0) n (%)
  Diarrhoea: 0 (0.0) n (%)
  Dizziness: 0 (0.0) n (%)
  Epistaxis: 0 (0.0) n (%)
  Fatigue: 0 (0.0) n (%)
  Headache: 0 (0.0) n (%)
  Hypertension: 0 (0.0) n (%)
  Insomnia: 0 (0.0) n (%)
  Muscle spasms: 0 (0.0) n (%)
  Myalgia: 0 (0.0) n (%)
  Nausea: 0 (0.0) n (%)
  Neutropenia: 0 (0.0) n (%)
  Neutrophil count decrease: 1 (1.5) n (%)
  Pain in extremity: 0 (0.0) n (%)
  Petechiae: 0 (0.0) n (%)
  Pruritus: 0 (0.0) n (%)
  Rash: 0 (0.0) n (%)
  Seborrheic keratosis: 0 (0.0) n (%)
  Skin laceration: 0 (0.0) n (%)
  Upper respiratory tract infection: 0 (0.0) n (%)
  Urinary tract infection: 0 (0.0) n (%)
Safety Analysis Set, 72 patients
  Serious atrial fibrillation: 2.8%
Total
  Arthralgia: 9 (13.4) n (%)
  Back pain: 4 (6.0) n (%)
  Bronchitis: 4 (6.0) n (%)
  Cellulitis: 4 (6.0) n (%)
  Constipation: 4 (6.0) n (%)
  Contusion: 15 (22.4) n (%)
  Cough: 5 (7.5) n (%)
  Diarrhoea: 9 (13.4) n (%)
  Dizziness: 7 (10.4) n (%)
  Epistaxis: 5 (7.5) n (%)
  Fatigue: 14 (20.9) n (%)
  Headache: 4 (6.0) n (%)
  Hypertension: 8 (11.9) n (%)
  Insomnia: 5 (7.5) n (%)
  Muscle spasms: 5 (7.5) n (%)
  Myalgia: 10 (14.9) n (%)
  Nausea: 7 (10.4) n (%)
  Neutropenia: 5 (7.5) n (%)
  Neutrophil count decrease: 5 (7.5) n (%)
  Pain in extremity: 6 (9.0) n (%)
  Petechiae: 5 (7.5) n (%)
  Pruritus: 4 (6.0) n (%)
  Rash: 5 (7.5) n (%)
  Seborrheic keratosis: 4 (6.0) n (%)
  Skin laceration: 4 (6.0) n (%)
  Upper respiratory tract infection: 4 (6.0) n (%)
  Urinary tract infection: 5 (7.5) n (%)
In vivo
  Bleeding events: 25 patients
  Median time to onset of first hypertensive event: 105 days
  Patients requiring dose reductions: 9.0%
  Rate of zanubrutinib discontinuation due to AEs: < 10%
[1]; oral administration
  Median Tmax: 2 h
[1]; patients with B-cell malignancies
  Mean terminal elimination half-life (t1/2): 2 to 4 h
[1]; previous clinical DDI study in healthy volunteers
  Mean t1/2: 6.8 h
